Assay results taken from US20060009433A1, “Neuroprotective spirostenol pharmaceutical compositions” (priority 2003, published 2006).
Entries after “also recorded” stand apart in the source; their conditions may differ.

How the values were obtained:
[1] = biological target: T1, Aβ (Homo sapiens, UniProt P05067); assay: Immunoblot analysis of Aβ polymerization and ADDL formation; assay type: biochemical; conditions: SP233 1, 10, 100 μM
T1 construct: Aβ1-42 peptide was purchased from American Peptide Co; purchased American Peptide Co. (Sunnyvale, Calif.)
T1 sequence (P05067 672-713): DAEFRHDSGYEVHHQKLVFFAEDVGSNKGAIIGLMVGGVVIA
Description: Increasing concentration of Aβ (0.1, 1 and 10 μM) were incubated in PC12 culture medium for 24 hours and 72 hours at 37° C. under 5% CO2 with or without increasing concentrations of SP233 (1, 10 and 100 μM). At the end of the incubation time, samples were separated by 4-20% Tris-Glycine gel electrophoresis (Invitrogen) under native conditions at 125V for 2 hours and transferred to nitrocellulose membrane (Hybond™ ECL™, Amersham Pharmacia Biotech) at […] for 30 minutes. Non-specific adsorption of the antibodies was blocked by incubating the nitrocellulose in 5% milk. The blots were treated for immunodetection of Aβ species using a polyclonal antibody to Aβ that recognizes a 30 amino acid peptide of the Aβ protein (Zymed Laboratories, San Francisco, Calif.). Membranes were incubated in primary antibody for 1 hour at room temperature at a dilution of 1:2,000. Then, membranes were incubated in the secondary antibody at a dilution of 1:1,000 for 1.5 hours at room temperature. The blots were visualized using the ECL™ Western Blotting Analysis System (Amersham Biosciences). Image-densitometric analysis was performed using the OptiQuant software (Packard BioScience). This method allows for the separation, visualization and identification of Aβ complexes, polymers and ADDLs.

[2] = tested on: PC12 cells (rat pheochromocytoma neurons); assay: MTT cytotoxicity assay, Aβ-induced neurotoxicity in PC12 cells (Example II); assay type: cell-based
Description: (§1) PC12 cells (rat pheochromocytoma neurons) from ATCC (Manassas, Va.) were cultured at 37° C. and 5% CO2 in RPMI 1640 medium devoid of glutamine and supplemented with 10% fetal bovine serum and 5% horse serum. Yao Z, Drieu K and Papadopoulos V., The Gingko biloba extract EGb 761 rescues PC12 neuronal cells from β-amyloid-induced cell death by inhibiting the formation of (3-amyloid-derived diffusible neurotoxic ligands, Brain Res, 889, 181-190 (2001). Cells were seeded in 96-well plates (8×10^4 cells/well). After an overnight period of incubation, increasing concentrations of aggregated Aβ (0.1, 1 and 10 μM) were added to the cells in the presence or absence of the indicated concentrations of the SP compounds to be tested. After 72-hours incubation time various parameters, markers of cell viability, were determined. Mouse MA-10 tumor Leydig cells were maintained at 37° C. in DMEM/Ham's F12 (Biofluids, Rockville, Md.) medium supplemented with 5% heat-inactivated fetal calf serum and 2.5% horse serum in 5% CO2. Cells were plated on 96-well plates at the density of 2.5×10^4 cells/well for overnight. The cells were stimulated with the indicated concentrations of the various SP compounds in 0.2 ml/well serum-free medium for 2 hours. The culture medium was collected and tested for progesterone production by radioimmunoassay.
The cellular toxicity of Aβ was assessed using the 3-(4,5-dimethylthiazol-2-yl)-2,5-diphenyl tetrazolium bromide (MTT) assay (Trevigen, Gaithersburg, Md.). Briefly, 10 μl of the MTT solution were added to the cells cultured in 100 μl medium. After an incubation period of 4 hours, 100 μl of detergent were added and cells were incubated overnight at 37° C. Formazan blue formation was quantified at 600 nm and 690 nm using the Victor quantitative detection spectrophotometer (EGG-Wallac, Gaithersburg, Md.) and the results expressed as (DO600-DO690). […] Liu Y and Schubert D, Steroid hormones block amyloid fibril-induced 3-(4,5-dimethylthiazol-2-yl)-2,5-diphenyltetrazolium bromide (MTT) formazan exocytosis: relationship to neurotoxicity, J. Neurochem., 19, 1639-1662 (1998). For that reason, additional cytotoxicity and cell viability assays were used.
Yao et al., J. Neurochem., 83, 1110-1119 (2002); and Yao et al., The Gingko biloba extract EGb 761 rescues PC12 neuronal cells from β-amyloid-induced cell death by inhibiting the formation of β-amyloid-derived diffusible neurotoxic ligands, Brain Res., 889, 181-190 (2001). To stay close to the concentrations of Aβ present in AD brain, 0.1-10 μM concentrations of Aβ were used. The compounds tested for their neuroprotective properties were examined at 30 and 50 μM concentrations (FIGS. 9-15).

[3] = tested on: MA-10 mouse tumor Leydig cells; assay: Steroid (progesterone) formation in MA-10 Leydig cells; assay type: in vitro ADME; conditions: MA-10 cells, 2 hours
Description: as §1, with “The cells were stimulated with the indicated concentrations of the various SP compounds in 0.2 ml/well serum-free medium for 2 hours. The culture medium was collected and tested for progesterone production by radioimmunoassay.” left out
Progesterone production by MA-10 cells was measured by radioimmunoassay using anti-progesterone antisera (ICN, Costa Mesa, Calif.), following the conditions recommended by the manufacturer. […] Radioimmunoassay data was analyzed using the MultiCalc software (EG&G Wallac, Gaithersburg, Md.). […]

[4] = tested on: PC12 cells; assay: Trypan blue uptake, Aβ-treated PC12 cells (Example II); assay type: cell-based, rat
Description: as §1, with “The cells were stimulated with the indicated concentrations of the various SP compounds in 0.2 ml/well serum-free medium for 2 hours. The culture medium was collected and tested for progesterone production by radioimmunoassay.” left out
Cell viability was measured using the trypan blue exclusion method as we previously described. […] After washing three times with PBS, 0.1 N NaOH was added to the cells and trypan blue was quantified using the Victor quantitative detection spectrophotometer at 450 nm.

[5] = tested on: PC12 cells; assay: Membrane potential (CytoLite luminescence) in Aβ-treated PC12 cells; assay type: cell-based, rat; conditions: 10 μM Aβ
Description: as §1
Cells viability was also assessed using the luminescence-based kit CytoLite™ (Packard BioScience Co.) according to the recommendations of the manufacturer. Briefly, cells were cultured and treated in 96-well plates and after 72-hours incubation time, 25 μl of Activator solution was added to the cells followed by 150 μl of Amplifier solution. Luminescence was measured on a TopCount NXT™ counter (Packard BioSciences Co.) following a 5 minute precount delay.

[6] = biological target: T1, Aβ; assay: CPBBA displacement of radiolabeled 22R-hydroxycholesterol from Aβ (Example II); assay type: binding; conditions: 100 μM unlabeled compound; 50 μM Aβ
Description: At the end of the incubation time, samples were separated by 1.5% agarose (Type I-B) gel electrophoresis under native conditions and transferred to nitrocellulose membrane (Schleicher&Schuell, Keene, N.H.) in 10×SSC buffer. The membrane was exposed to tritium-sensitive screen and analyzed by phosphoimaging using the Cyclone Storage phosphor system (Packard BioScience). Image-densitometric analysis was performed using the OptiQuant software (Packard BioScience). […] Low molecular weight unincorporated 22R-hydroxycholesterol and derivatives are separated and eliminated during electrophoresis.

[7] = tested on: PC12 cells; assay: Cellular ATP levels (ATPLite-M) in Aβ-treated PC12 cells; assay type: cell-based, rat; conditions: 0.1 and 1.0 μM Aβ
Description: as §1
Cellular ATP concentrations were measured using the ATPLite-M™ luminescence assay (Packard BioSciences Co.). For this assay, cells were cultured on black 96-well ViewPlate™ and the ATP concentrations were measured on a TopCount NXT™ counter (Packard BioSciences Co.) following the recommendations of the manufacturer.

[8] = MTT, compounds at 30 and 50 μM, 72 hours

CCCCCC(=O)O[C@H]1CC[C@@]2(C)C(=CC[C@H]3[C@@H]4C[C@@H]5O[C@@]6(CC[C@H](C)CO6)[C@@H](C)[C@@H]5[C@@]4(C)CC[C@@H]32)C1 [SP233, (22S,25S)-(20S)-spirost-5-en-3β-yl hexanoate]
amount of Aβ polymeric species [1]: small dose-dependent increase | trimeric and tetrameric ADDLs ([1]; 10 μM Aβ, 24 and 72 hours): dose-effect relationship is also observed; also recorded: decreased in a dose-dependent manner | amount of Aβ monomeric species ([1]; 1 and 10 μM Aβ, 24 and 72 hours): decreases in a dose-dependent manner | protection against 0.1 μM Aβ ([2]; 0.1 μM Aβ): 75% | neuroprotective effect compared with SP222 ([2]; MTT, 0.1 μM Aβ): significantly more robust effect than SP222 | neuroprotection against 0.1 μM Aβ-induced neurotoxicity [2, 8]: displayed neuroprotective activity | neuroprotection against 1 μM Aβ-induced neurotoxicity [2, 8]: maintained their neuroprotective properties | neuroprotection against 10 μM Aβ-induced neurotoxicity [2, 8]: kept this property; also recorded: exhibited neuroprotective activity | neuroprotection against Aβ-induced neurotoxicity (structure/activity discussion) ([2]; PC12 cells): the most potent compound | neuroprotection in vitro against Aβ at concentrations as low as ([2]; all assays used): 10 µM | metabolism to final steroid products / steroid formation [3]: could not be metabolized to final steroid products; also recorded: unable to induce steroid formation | dose-dependence of the neuroprotective effect ([4]; FIG. 15, 0.1, 1.0 and 10.0 μM Aβ): dose-dependent | effect on Aβ-induced cell death (trypan blue uptake) ([4]; SP233 at 30 and 50 μM, 0.1, 1 and 10 μM Aβ): inhibited the Aβ-induced cell death | neuroprotective effect against 10 μM Aβ, membrane potential luminescence [5]: replicated by the raise of the signal | displacement of radiolabeled 22R-hydroxycholesterol binding to Aβ [6]: 35% | reversal of Aβ-induced decrease in ATP levels [7]: able to reverse; also recorded: blocked, although in part
